“And” between values parts separate entries of the source, which are not always exact repeats. Equal entries are not always repeated.
Legend:
[1] = Skin permeation in Franz diffusion cells; format: in vitro ADME, pig; settings: 24 h, 10 mg as FA applied
Method: In the experiment, abdominal porcine skin coming from the local slaughterhouse was used. Pig skin was chosen because of its similar permeability to human skin [34, 35]. The fresh abdominal porcine skin was washed several times in PBS buffer pH 7.4. The skin of 0.5 mm in thickness was dermatomed and divided into 2 cm × 2 cm pieces. The skin samples were wrapped in aluminum foil and stored at −20 °C until use, not longer than 3 months. According to Badran et al., this storage time at this temperature is safe to keep skin barrier properties. Immediately before the experiment, the skin samples were slowly thawed at room temperature for 30 min and then were hydrated by PBS pH 7.4 [37, 38, 39, 40]. Such prepared skin was mounted on donor chamber. Only the undamaged skin pieces with an even thickness were chosen for experiments. The integrity of the skin was checked by impedance measurement using an LCRmeter4080 (Conrad Electronic, Hirschau, Germany), operated in parallel mode at an alternating frequency of 120 Hz (error at kΩ values < 0.5%). The tips of measuring probes were immersed in the donor and acceptor chamber containing PBS (pH 7.4), as described previously. Only skin samples of impedance > 3 kΩ were applied as such impedance is similar to the electrical resistance of human skin [42].
The concentration of FA and its derivatives in the acceptor fluid and in the fluid obtained by skin extraction after permeation experiment was assessed using liquid chromatography system (Knauer, Berlin, Germany) consisting of a model 2600 UV detector, Smartline model 1050 pump and Smartline model 3950 autosampler. HPLC was controlled by ClarityChrom 2009 software. The detector was operated at 280 nm. The separations were performed on 125 mm × 4 mm ID chromatographic column filled with Hyperisil ODS (C18), particle size 5 µm, in isocratic mode. The mobile phase consisted of acetonitrile, 1% acetic acid, and MeOH (47/47/6 v/v/v) and was pumped at flow rate of 1 mL min^−1. The column temperature was set at 25 °C, and the injection volume was 20 µL.
(§1) The permeation experiments were performed using Franz diffusion cells (Phoenix DB-6, ABL&E-JASCO, Wien, Austria). The diffusion was 1 cm^2. The volume of the acceptor chamber was 8 mL. This chamber was filled with PBS solution (pH 7.4). During experiment, a constant temperature of 37.0 ± 0.5 °C was maintained in each diffusion unit. The acceptor chamber content was stirred with a magnetic stirring bar at the same speed for all cells. The prepared pig skin was mounted on each donor chamber. As previously mentioned, only undamaged skin pieces with an even thickness were chosen for experiments. Thereafter, the hydrogel or emulsion vehicle/preparation in 1 g portion was put on the skin in donor cells. For comparison, 1 mL ethanolic solution containing either FA or its derivatives was applied to another donor chamber. The amount of the FA and its derivatives applied on the skin expressed as the mass of ferulic acid was 0.01 g and was the same for each carrier. The penetration experiments were carried out for 24 h. The samples were collected after 1 h, 2 h, 3 h, 4 h, 5 h, 6 h, 8 h, and 24 h. Aliquots of the acceptor fluid (0.5 mL) were withdrawn and to each acceptor chamber the same volume of fresh PBS solution was added. The FA and its derivatives’ concentrations in the acceptor fluid were measured by HPLC method (Section 2.6.2). The cumulative mass (µg·cm^−2) and penetration rate (µg·cm^−2·h^−1) were calculated. The acceptor fluid collected after 24 h of permeation was also measured for antioxidant activity and total polyphenol content (as described in Section 2.5.1 and Section 2.5.2).

[2] = Accumulation in the skin after 24 h permeation; format: in vitro ADME, pig; settings: 24 h penetration, ethanol solution
Method: (§2) The accumulation of the FA and its derivatives in the skin after 24 h permeation process through the skin were determined using a modification of the methods described by Janus et al. and Taokaew et al.. After 24 h of permeation experiment, the skin samples were removed from the Franz diffusion cell, washed three times with 0.5% sodium lauryl sulfate solution and dried at room temperature. Next, after cutting out the diffusion area of each skin sample, the samples were immersed in 2 mL of absolute ethanol and continuously stirred at 300 rpm at room temperature for 24 h. The samples were then centrifuged, and clear solutions were collected and analyzed by HPLC method for the determination of FA and its derivatives. The accumulation of the active substance in the skin was calculated by dividing the amount of the drug remaining in the skin by a mass of skin sample and was expressed in mass active substance per mass of the skin (µg g^−1). For solution obtained after skin extraction, the antioxidant activity and total polyphenol content were also determined (as described in Section 2.5.1 and Section 2.5.2).

[3] = DPPH antioxidant activity of solution obtained after skin extraction; parameters: species or system pig; settings: after 24 h penetration
Method: (§3) To determine the antioxidant capacity of ferulic acid and its derivatives the DPPH method was used. The analyses were performed using the Hitachi UV-Vis Spectrophotometer U-5100 at the wavelength λ = 517 nm. Trolox (6-hydroxy-2,5,7,8-tetramethylchroman-2-carboxylic acid) was used as a reference substance. The antioxidant activity was expressed as %RSA and mmol Trolox dm^−3. […]. Blank samples without antioxidant were prepared in the same way. The tubes were wrapped in aluminum foil and were sealed with a stopper and then incubated for 10 min at room temperature. After this time, spectrophotometric measurements were carried out in triplicate. For determination of antioxidant activity of the acceptor fluid after 24 h of permeation and solutions obtained by extraction of the skin obtained after penetration study, 0.15 mL samples of each solutions were separately added to 2.85 mL of DPPH solution and spectrophotometric measurements were performed. The antioxidant activity was expressed as mmol Trolox·dm^−3.
as §2

[4] = Thermogravimetric (TG) analysis, thermal stability; format: physicochemical; settings: air atmosphere, 10 °C·min^−1
Method: Samples of 2–5 mg, loaded in aluminium crucibles, were heated from 30 °C to 600 °C at the heating rate of 10 °C·min^−1, in the air atmosphere (25 mL·min^−1) with nitrogen flow (10 mL·min^−1) as the purge gas.

[5] = DPPH antioxidant activity of acceptor fluid after 24 h permeation; parameters: species or system pig; settings: after 24 h penetration
Method: as §3, §1

[6] = DPPH radical scavenging assay of the compounds
Method: as §3

[7] = tested on: Murine fibroblasts (L929); experiment: Cytotoxicity, PrestoBlue resazurin-based cell viability assay; settings: 2.0 mM, 24 h, PrestoBlue, normalized to control
Method: The cell biocompatibility was evaluated using a PrestoBlue HS Cell Viability Reagent (Thermo Fisher Scientific, MA USA) based on the reduction of the resazurin to highly fluorescent resorufin, of which the amount is directly correlated to the number of living cells. […] The cells without tested compounds were used as control. The interaction of tested compounds without cells and Prestoblue Reagent (blank wells) was excluded. After 24 h of treatment, optical microscopy imaging of L929 cells was performed using Smart Fluorescent Cell Analyzer Microscope JuLi (Seoul, Korea). Next, the PrestoBlue reagent (10 μL) was added to each well and incubated for 30 min. The fluorescence was measured using a spectrophotometric microplate reader (Infinite 200 Pro, Tecan, Männedorf, Switzerland) at ex/em: 560/594 nm. The readings were acquired from at least three independent experiments (each conducted in triplicate) and normalized to the control (100% viability).

[8] = n-octanol/water partition coefficient by shake flask method; format: physicochemical
Method: The n-octanol/water partition coefficient (log PO/W) was determined for ferulic acid and its derivatives by shake flask method. n-Octanol saturated with water and water saturated with n-octanol were prepared at 25 °C, 24 h prior to their use in the experiments. Then, a sample of 10 mg of compound was weighed with the accuracy of 0.01 mg in a 16 cm^3 screwed vial and dissolved in 5 cm^3 of n-octanol. Next, 5 cm^3 of water was added to the vial. The resulting two-phase mixture was kept in water bath shaker at 25 °C for 2 h and was strongly shaken to reach the partition equilibrium of the compound between the phases. Then the mixture was left unshaken for 30 min and 1.0 cm^3 of water phase was carefully taken out to centrifuge tube. The sample was next centrifuged for 10 min at 7500 rpm at 25 °C to ensure the most precise phase separation. The concentration of compound in water phase was then determined using HPLC method. The partition coefficient, log PO/W was calculated according to the formula: logPO/W=logC0V0−CWVW/CWVW where: C0—initial concentration of the compound in n-octanol, calculated based on the weighed mass of compound, mg·cm^−^3; V0—volume of n-octanol, cm^3; CW—concentration of the compound in water after partition equilibrium, mg·cm^−^3; VW—volume of water, cm^3.

[9] = molar ratio antioxidant:DPPH 0.1, 10 min
[10] = molar ratio antioxidant:DPPH 1.0, 10 min
[11] = molar ratio antioxidant:DPPH 2.0, 10 min

With `CCCOC(=O)[C@@H]1CCCN1.COc1cc(/C=C/C(=O)O)ccc1O` [PPr[FA], L-proline propyl ester ferulate] the “Cumulative Permeation Mass” value ([1]; from emulsion) was 128.80 ± 19.86 µg FA·cm^−2 and 128.80 ± 19.86 a µg FA·cm^−2, the “Cumulative Permeation Mass” value ([1]; from hydrogel) was 396.86 ± 42.13 µg FA·cm^−2 and 396.86 ± 42.13 b µg FA·cm^−2 and the “Cumulative Permeation Mass” value ([1]; from solution in 70% (v/v) ethanol) was 427.00 ± 4.674 µg FA·cm^−2 and 427.00 ± 4.67 b µg FA·cm^−2. The “Accumulation in the skin compared to pure FA” value [2] was “accumulated in a significantly smaller amount compared to pure FA”, the “DPPH antioxidant activity of the solution obtained after skin extraction” value ([3]; emulsion) was 0.198 ± 0.006 a mmol Trolox dm^−3 and the “DPPH antioxidant activity of the solution obtained after skin extraction” value ([3]; ethanol solution) was 0.259 ± 0.007 a mmol Trolox dm^−3. For the same compound, the “DPPH antioxidant activity of the solution obtained after skin extraction” value ([3]; hydrogel) was 0.351 ± 0.036 ab mmol Trolox dm^−3, the “Td onset, the onset of decomposition” value ([4]; TG) was 122.8 °C and the “Td max, temperature of the fastest mass loss of the sample” value ([4]; TG/DTG) was 148.7 °C. For the same compound, the “DPPH antioxidant activity of the acceptor fluid” value ([5]; emulsion) was 0.061 ± 0.007 mmol Trolox dm^−3 and 0.061 ± 0.007 a mmol Trolox dm^−3, the “DPPH antioxidant activity of the acceptor fluid” value ([5]; ethanol solution) was 0.094 ± 0.002 a mmol Trolox dm^−3 and the “DPPH antioxidant activity of the acceptor fluid” value ([5]; hydrogel) was 0.075 ± 0.012 mmol Trolox dm^−3 and 0.075 ± 0.012 a mmol Trolox dm^−3. The “Antioxidant activity %RSA” value [6, 9] was 19.3 ± 0.001 %RSA and 19.3 ± 0.001 a %RSA, the “Antioxidant activity, Trolox equivalents” value [6, 9] was 0.115 ± 0.001 mmol Trolox dm^−3 and 0.115 ± 0.001 a mmol Trolox dm^−3 and the “Antioxidant activity %RSA” value [6, 10] was 79.6 ± 0.001 b %RSA. The “Antioxidant activity, Trolox equivalents” value [6, 10] was 0.697 ± 0.001 b mmol Trolox dm^−3, the “Antioxidant activity %RSA” value [6, 11] was 87.7 ± 0.001 %RSA and 87.7 ± 0.001 b %RSA and the “Antioxidant activity, Trolox equivalents” value [6, 11] was 0.775 ± 0.001 mmol Trolox dm^−3 and 0.775 ± 0.001 b mmol Trolox dm^−3. The L929 viability [7] was 78.56 ± 2.73%, the “Share of compound partitioned to n-octanol” value ([8]; from log PO/W) was 74% and the “log PO/W” value ([8]; n-octanol/water, shake flask, 25 °C) was 0.447 ± 0.022.
